Columns and labels:
HepG2-A16-CD81EGFP cells = experiment: HepG2 cytotoxicity bioluminescence assay (CellTiter-Glo); assay type: cell-based, human; details: for concentration below which no toxicity was seen: HepG2-A16-CD81EGFP, 48 h, CellTiter-Glo
Experimental: Compounds 66 and 177 were tested for viability of liver schizonts of the murine Plasmodium berghei species transformed with Luciferase by using the following assay adapted and modified from S. Swann et al. (2016) High-Throughput Luciferase-Based Assay for the Discovery of Therapeutics That Prevent Malaria. ACS Infectious Diseases 2: 4. 281-293 (2016), but with the removal of the infection methods. The CellTiter-Glo® ° (Promega Corp., Madison WI) is a method to determine the number of viable cells in culture based on quantitation of the ATP present, which signals the presence of metabolically active cells.
HepG2-A16-CD81EGFP cells were stably transformed to express a GFP-CD81 fusion protein (S. Yalaoui et al., Hepatocyte permissiveness to Plasmodium infection is conveyed by a short and structurally conserved region of the CD81 large extracellular domain. PLoS Pathog. 4, e1000010 (2008); O. Silvie et al, Hepatocyte CD81 is required for Plasmodium falciparum and Plasmodium yoelii sporozoite infectivity. Nat. Med. 9, 93 (2003)). The transformed HepG2-A16-CD81EGFP cells were cultured at 37° C. in 5% CO2 in DMEM (Invitrogen, Carlsbad, USA) supplemented with 10% FCS, 0.29 mg/ml glutamine, 100 units penicillin and 100 μg/ml streptomycin.
[…] HepG2-A16-CD81EGFP cells in 5 μl of medium (2×10^5 cells/ml, 5% FBS, 5× Pen/Strep/Glu) were seeded in 1536-well plates (Greiner BioOne white solid bottom custom GNF mold) 20-26 hours prior to the actual infection. 24 hours prior to infection, 50 nl of compound in DMSO (0.5% final DMSO concentration per well) was transferred with acoustic transfer machine (ATS) into the assay plates (10 μM-50 μM final concentration). Puromycin (25 μM) and 0.5% DMSO were used as positive and negative controls, respectively.
5 μl of the HepG2 screening media were dispensed into each well of the 1536 plate format using the BioTek MultiFlo FX Multi-Mode Cell Dispenser and a 5 μl BioTek Liquid Handling MicroFlo cassette. This step was to maintain equal concentrations of compounds with the Pb-Luc infected plates that were performed in parallel with this assay (P. berghei-Luciferase Liver Stage Bioluminescence Assay). After incubation at 37° C. for 48 hours, the cell viability was quantified by bioluminescence measurement. […] Puromycin and naive wells were used as controls on each plate. The compounds were screened in a 12 point serial dilution to determine their IC50 values.
Media was removed by spinning the inverted plates at 150 RCF for 1 minute. CellTiter-Glo® reagent (Promega Corp., Madison WI) was prepared following manufacturer instructions and diluted with DI H2O 1:1 (final solution is 50% CellTiterGlo® reagent in DI H2O). […] Immediately after addition of the CellTiter-Glo® reagent, the plates were read by the Envision Multilabel Reader (PerkinElmer).

[1] = system: DHODH deficient Pf Dd2 mutant; experiment: P. falciparum (Dd2 strain) asexual blood stage assay, DHODH deficient mutant; assay type: cell-based, Plasmodium falciparum; details: for IC50: Plasmodium falciparum, DD2, 72 h, read-out: DHODH deficient Pf Dd2 mutant IC50 (uM)
Experimental: Assays using human blood cells infected with Plasmodium falciparum: (Pf) parasites, both wild-type strains as well as mutant drug-resistant strains, were performed as described below. Wild-type strains used were aatB Pf (Dd2 strain) and Pf (Dd2 strain). Mutant strains used were proguanil resistant attb Pf (Dd2 strain), dihydroorotate dehydrogenase (DHODH) deficient aatB Pf (Dd2 strain), and DHODH deficient and proguanil resistant Pf (Dd2 strain).
2008 Jul. 1; 105(26):9059-64.
Parasitemia was estimated by blood smear Giemsa stain and visual inspection under the microscopic.
The screening plate was prepared by centrifuging for parasite culture for 5 min at 800×g at RT (low brake) and removing supernatant. A parasite suspension was prepared with 0.3% parasitemia and 4% hematocrit in screening medium (SM). The suspension was gassed with a gas mixture of 1% oxygen, 3% carbon dioxide, 96% nitrogen and stored at 37° C. for until ready to use. 50 nl of 1 mM compound in DMSO was prespotted into 1536 well plates (final drug conc. of 12.5 μM, final DMSO conc. of 0.625%) with the acoustic dispenser ATS. Controls were Artemisinin, Chloroquine, and DMSO. 8 μl of SM was dispensed into 1,536-well, black, clear-bottom plates (Greiner) using the MultiFlo™ Microplate dispenser (BioTek) (final parasitemia of 0.3% and 2.5% hematocrit in SM). The plates were incubated at 37° C. for 72 h with water-soaked tissue in a closed ziploc bag gassed with 1% oxygen, 3% carbon dioxide, 96% nitrogen.
2 μl of detection reagent mixture (10×SYBR Green I (Invitrogen) in Lysis buffer (20 mM Tris/HCl, 5 mM EDTA, 0.16% Saponin wt/vol, 1.6% Triton X vol/vol) was added. Assay plates were read from the bottom by using the 2104 EnVision® Multilabel Reader (PerkinElmer) (485 nm excitation, 530 nm emission). The results are presented in Table 5 below.

SMILES | cell-based toxicity, in words (HepG2-A16-CD81EGFP cells) | concentration below which no toxicity was seen (HepG2-A16-CD81EGFP cells) | IC50 [1] | potency against a dihydroorotate dehydrogenase (DHODH) deficient mutant ([1]; in words)
O=C1c2c3c(nc4ccccc24)CCN(Cc2ccccc2)C3N1c1ccc(F)c(F)c1 (stereo not shown) [Compound 177, 3-Benzyl-2-(3,4-difluorophenyl)-2a,3,4,5-tetrahydrobenzo[b]pyrrolo[4,3,2-de][1,6]naphthyridin-1(2H)-one] | acceptable levels of cell-based toxicity | ≥ 12.5 µM | 0.006 µM | undiminished potency
O=C(Nc1ccc(F)c(F)c1)c1c2c(nc3ccccc13)CCN(Cc1ccccc1)C2 [Compound 66, 2-Benzyl-N-(3,4-difluorophenyl)-1,2,3,4-tetrahydrobenzo[b][1,6]naphthyridine-10-carboxamide] | acceptable levels of cell-based toxicity | ≥ 50 µM | 0.0301 µM | –

Source: patent US12370183B2, “Compositions and methods for treating malaria” (Rutgers, The State University of New Jersey, priority 2020, dated 2025)
